# ChEMBL document CHEMBL1121981, “Synthesis and biological evaluation of a metazocine-containing enkephalinamide. Evidence for nonidentical roles of the tyramine moiety in opiates and opioid peptides” (J Med Chem, 1982)
# pIC50: −log10 of the molar value. The source made the active and inactive calls. The rule behind the calls is not given here.
# Key:
# Format in all cases: functional, tissue-based
# [1] = molecular target: Mu-type opioid receptor (Cavia porcellus) (UniProt P97266); experiment: Mu opioid receptor agonist activity was determined by inhibition of electrically stimulated myenteric plexus in guinea pig ileum; Inactive, weak antagonism with agonist morphine PA2 of <6; conditions: filed as antagonist
# Sequence of Mu-type opioid receptor (Cavia porcellus) (P97266 whole entry): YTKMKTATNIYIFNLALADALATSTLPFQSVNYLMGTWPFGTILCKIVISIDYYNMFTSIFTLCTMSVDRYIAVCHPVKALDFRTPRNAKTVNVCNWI
# [2] = molecular target: Mu-type opioid receptor (Cavia porcellus) (UniProt P97266); experiment: Mu opioid receptor agonist activity was determined by inhibition of electrically stimulated myenteric plexus in guinea pig ileum
# [3] = molecular target: Mu-type opioid receptor (Cavia porcellus, UniProt P97266); experiment: Mu opioid receptor agonist activity as inhibition of electrically stimulated mysenteric plexus in guinea pig ileum
# Sequence of Mu-type opioid receptor (P97266 whole entry): as above
# [4] = molecular target: Mu-type opioid receptor (Cavia porcellus) (UniProt P97266); experiment: Mu opioid receptor agonist activity was determined by inhibition of electrically stimulated myenteric plexus in guinea pig ileum; Inactive
Structure (SMILES),pIC50 [3],Relative potency [4],further results
"CSCC[C@@H](NC(=O)[C@H](Cc1ccccc1)NC(=O)CNC(=O)CNC(=O)C12Cc3ccc(O)cc3C(C)(CCN1C)C2C)C(N)=O (single isomer, unassigned; (-))",–,–,Relative potency [1]: Partial antagonist
"CC1C2Cc3ccc(O)cc3C1(C)CC(C(N)=O)N2C (single isomer, unassigned; (-)) [listing 1 of 2 here]",–,–,Relative potency [2]: 0.009
"CC1C2Cc3ccc(O)cc3C1(C)CC(C#N)N2C (single isomer, unassigned; form 1)",6.29,–,–
"CSCC[C@@H](NC(=O)[C@H](Cc1ccccc1)NC(=O)CNC(=O)CNC(=O)C12Cc3ccc(O)cc3C(C)(CCN1C)C2C)C(N)=O (single isomer, unassigned; (+))",–,inactive,–
"CSCC[C@@H](NC(=O)[C@H](Cc1ccccc1)NC(=O)CNC(=O)CNC(=O)C1CC2(C)c3cc(O)ccc3CC(C2C)N1C)C(N)=O (single isomer, unassigned; (+))",–,inactive,–
"CC1C2Cc3ccc(O)cc3C1(C)CC(C(N)=O)N2C (single isomer, unassigned; (-)) [listing 2 of 2 here]",5.22,–,–
CSCC[C@H](NC(=O)[C@H](Cc1ccccc1)NC(=O)CNC(=O)CNC(=O)C1CC2(C)c3cc(O)ccc3CC(C2C)N1C)C(N)=O (some centres not stated),5.10,–,–
C[C@H]1[C@@H]2Cc3ccc(O)cc3[C@]1(C)CCN2C [METAZOCINE],7.03,–,–
CSCC[C@H](NC(=O)[C@H](Cc1ccccc1)NC(=O)CNC(=O)[C@@H](C)NC(=O)[C@@H](N)Cc1ccc(O)cc1)C(N)=O,7.76,–,Relative potency [2]: 329
CC1C2(C)CCN(C)C1(C#N)Cc1ccc(O)cc12 (racemic),–,inactive,–
"CC1C2Cc3ccc(O)cc3C1(C)CC(C(N)=O)N2C (single isomer, unassigned; (+))",–,inactive,–
CSCC[C@@H](NC(=O)[C@H](Cc1ccccc1)NC(=O)CNC(=O)CNC(=O)C1CC2(C)c3cc(O)ccc3CC(C2C)N1C)C(N)=O (some centres not stated),–,–,Relative potency [2]: 0.007
"CC1C2(C)CCN(C)C1(C(N)=O)Cc1ccc(O)cc12 (single isomer, unassigned; (-)) [listing 1 of 2 here]",–,–,Relative potency [2]: 0.02
"CC1C2Cc3ccc(O)cc3C1(C)CC(C#N)N2C (single isomer, unassigned; form 2)",6.29,–,–
CC1C2(C)CCN(C)C1(C(N)=O)Cc1ccc(O)cc12 (configuration not stated),–,inactive,–
"CC1C2(C)CCN(C)C1(C(N)=O)Cc1ccc(O)cc12 (single isomer, unassigned; (-)) [listing 2 of 2 here]",5.55,–,–
